Experiments:
[1] = biological target: T1, eNOS-β-actin association (Sus scrofa, UniProt Q6QAQ1); assay: eNOS-β-actin co-immunoprecipitation in pulmonary artery endothelial cells; assay type: cell-based, pigs; details: peptide 20 μm, 3 h
T1 construct: endogenous in cells; host or cells: porcine pulmonary artery endothelial cells (PAEC)
Procedure: Transfection of Endothelial Cells with ABS Peptides Pulmonary artery endothelial cells were incubated with ABS peptides at 20 μm final concentration in MEM medium. […] Cells were then incubated for another 2 h before being used for co-immunoprecipitation and eNOS activity assays.
Determination of eNOS-β-Actin Association, NO Production, and Superoxide Formation in Endothelial Cells eNOS-β-Actin association was evaluated using co-immunoprecipitation.
This TAT tag is a novel method used to facilitate delivery of biologically active proteins or peptides into cells and tissues through the fusion of a protein transduction domain to the protein or peptide of interest (Gustafsson, A. B., et al. (2002) Circulation 106, 735-39). To confirm the efficiency of P326TAT and control peptide TAT to enter endothelial cells, FITC-labeled P326TAT and FITC-labeled control peptide TAT were used. […] Endothelial cells were incubated with P326TAT and control peptide TAT for 3 h, and then eNOS-β-actin association was evaluated by co-immunoprecipitation using anti-eNOS antibody.

[2] = test system: pulmonary artery endothelial cells; assay: NO production in endothelial cells (NOx, SIEVERS); assay type: cell-based, pigs; details: peptide 20 μm 3 h, ionomycin 2 μM
Procedure: After wild-type and eNOS mutant transfection, ionomycin (2 μm) was added to the cells. After 30 min of incubation, culture medium was collected and ethanol-precipitated to remove proteins. 50 μl of the reaction mix were loaded to the SIEVERS machine for NOx measurement according to standard manufacturer's instructions (Church, J. E., and Fulton, D. (2006) J. Biol. Chem. 281, 1477-88). In some experiments, N^G-nitro-1-arginine methyl ester (L-NAME), a specific eNOS inhibitor, was used to inhibit NO production. […] For superoxide assay, after incubation with ABS peptides, the spin trap CMH was added to the cells. Superoxide from cells was trapped for 1 h, and then cells were scraped and subjected to EPR spectroscopy as previously described (Sud, N., et al. (2008) Am. J. Physiol. Cell Physiol. 294, C1407-18). Protein contents in the cell lysates were determined by Lowry's method.
To measure NO production, endothelial cells were incubated with ABS peptides for 3 h. Then ionomycin (2 μM) was added to the cells. After an additional 30 min, culture medium was collected and ethanol-precipitated to remove proteins. 50 μl of the reaction mix were loaded to the SIEVERS machine for NOx measurement as described above. For superoxide assay, after incubation with ABS peptides, the spin trap CMH was added to the cells. […]

[3] = test system: pulmonary artery endothelial cells; assay: superoxide formation in endothelial cells (CMH spin trap, EPR); assay type: cell-based, pigs; details: endothelial cells, peptide 20 μm, versus control peptide TAT
Procedure: To measure NO production, endothelial cells were incubated with ABS peptides for 3 h. Then ionomycin (2 μM) was added to the cells. After an additional 30 min, culture medium was collected and ethanol-precipitated to remove proteins. 50 μl of the reaction mix were loaded to the SIEVERS machine for NOx measurement as described above. For superoxide assay, after incubation with ABS peptides, the spin trap CMH was added to the cells. Superoxide from cells was trapped for 1 h, and then cells were scraped and subjected to EPR spectroscopy.

[4] = test system: eNOS-Hsp90 interaction; assay: eNOS-Hsp90 co-immunoprecipitation in endothelial cells; assay type: cell-based, pigs; details: versus control peptide TAT-transfected cells
Procedure: To rule out the possibility that the effect of P326TAT on eNOS activity in endothelial cells is caused by its effect on eNOS-Hsp90 interaction, eNOS-Hsp90 association was measured by co-immunoprecipitation using eNOS antibody.

[5] = test system: pulmonary artery endothelial cells; assay: endothelial monolayer wound repair; assay type: cell-based, pigs; details: P326TAT 20 μm
Procedure: Pulmonary artery endothelial cells were incubated with ABS peptides for 3 h. Then endothelial monolayer wound repair in the absence and presence of PEG-SOD (100 units/ml) and NOC-18 (10 μm) was measured as previously reported (Su, Y., et al. (2006) FASEB J. 20, 1443-51). Endothelial monolayer wound repair distance was expressed as the width of the wound before treatment subtracted by that after treatment.

[6] = biological target: T1, eNOS-β-actin association; assay: eNOS-β-actin co-immunoprecipitation in PAEC under normoxia or hyperoxia; assay type: cell-based, pigs
Procedure: (§1) Third- to sixth-passage cells in monolayer culture were maintained in RPMI 1640 medium containing 4% fetal bovine serum and antibiotics (10 units/ml penicillin, 100 μg/ml streptomycin, 20 μg/ml gentamicin, and 2 μg/ml Fungizone) and were used 2 or 3 days after confluence.
(§2) To reduce β-actin availability to eNOS, the β-actin mRNA was silenced using its siRNA as previously reported by us (Kondrikov, D., et al. (2006) Am. J. Physiol. Lung Cell Mol. Physiol. 290, L41-L50).

[7] = test system: eNOS; assay: eNOS catalytic activity (L-citrulline formation) in hyperoxic PAEC; assay type: cell-based, pigs; details: 95% oxygen 24 h
Procedure: as §1
(§3) The homogenates were centrifuged at 100,000 g for 60 min at 4° C., and the total membrane pellet was resuspended in buffer B (bufferAplus 2.5 mM CaCl2). The resulting suspension was used for determination of eNOS activity by monitoring the formation of L-[^3H]citrulline from L-[^3H]arginine (Su, Y., et al. (2003) Am. J. Physiol. Cell Physiol. 284, C1542-C1549). To determine NO production, thapsigargin (100 nM) was added to the medium of endothelial cells following normoxic or hyperoxic exposure. After 60 min of incubation, culture medium was collected and ethanol-precipitated to remove proteins. 50 μl of the reaction mix were loaded to the SIEVERS machine for NOx (NO2 and NO3) measurement according to standard manufacturer's instruction as previously described (Church, J E., et al. (2006) J. Biol. Chem. 281, 1477-1488). Protein contents in the cell lysates were determined by Lowry's method.
as §2

[8] = test system: PAEC; assay: NO production in hyperoxic PAEC; assay type: cell-based, pigs; details: 95% oxygen 24 h
Procedure: as §1, §3, §2

[9] = test system: PAEC; assay: peroxynitrite formation in hyperoxic PAEC (APF fluorescence); assay type: cell-based, pigs; details: 95% oxygen 24 h
Procedure: as §1, §2

[10] = test system: PAEC; details: peptide 20 μM, 95% oxygen 24 h
Procedure: as §1

Sequence: RKKRRQRRRALGLRWYAL [P326TAT]
- amount of β-actin co-immunoprecipitated with eNOS [1]: significantly decreased the amount of β-actin co-immunoprecipitated with eNOS
- NO production [2]: significantly decreased NO production
- superoxide formation [3]: much higher in P326TAT-transfected endothelial cells than control peptide TAT-transfected endothelial cells
- eNOS-Hsp90 interaction (Hsp90 co-precipitated with eNOS) [4]: did not affect eNOS-Hsp90 interaction
- endothelial monolayer wound repair [5]: exhibited lower capacity of wound repair
- hyperoxia-induced increase in β-actin co-immunoprecipitated with eNOS ([6]; 95% oxygen 24 h): prevented hyperoxia-induced increase in eNOS-β-actin co-immunoprecipitation
- amount of β-actin co-immunoprecipitated with eNOS ([6]; peptide 20 μM): significantly decreased the amount of β-actin co-immunoprecipitated with eNOS
- hyperoxia-induced increase in eNOS activity [7]: hyperoxic exposure did not induce an increase in eNOS activity
- hyperoxia-induced increase in NO formation [8]: prevented hyperoxiainduced increases in NO and peroxynitrite formation
- hyperoxia-induced increase in peroxynitrite formation [9]: prevented hyperoxiainduced increases in NO and peroxynitrite formation
- tyrosine nitration of proteins at 250, 100, 75, and 60 kDa, hyperoxia versus normoxia [10]: comparable between normoxia and hyperoxia

From patent publication US8435947B2, “Endothelial nitric oxide synthase antagonists and uses thereof for inhibiting oxygen toxicity” (Medical College of Georgia Research Institute, Inc., priority 2010, dated 2013)
